Where two headings read alike, the source gives them in different places.
Molecular target: T1, HCV polymerase (NS5B570n-Con1) (Hepatitis C virus genotype 1b, UniProt Q9WMX2)
T1 construct: contains a 21 amino acid deletion at the C-terminus relative to the full-length HCV polymerase; 6-histidine (N); made in house; host or cells: E. coli strain BL21(DE) pLysS (pET17b)
Assay: biochemical
Set-up: species or system HCV Con1 strain

[1] = IC50 HCV NS5B RNA Polymerase Assay, values without asterisk, 20 nM NS5B570n-Con1 enzyme, 20 nM cIRES RNA template
[2] = IC50 HCV NS5B RNA Polymerase Assay (values with asterisk), values with asterisk: cIRES RNA template, 3 nM NS5B570n-Con1
[3] = values without asterisk, 20 nM NS5B570n-Con1 enzyme, 20 nM cIRES RNA template, read-out: IC50 HCV NS5B RNA Polymerase Assay
[4] = read-out: IC50 HCV NS5B RNA Polymerase Assay, values without asterisk, 20 nM NS5B570n-Con1 enzyme, 20 nM cIRES RNA template
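Further: recombinant His-tagged enzyme from E. coli, radiolabeled nucleotide incorporation into acid-insoluble RNA read by scintillation after filtration, no-enzyme background subtracted, activity relative to positive control.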

SMILES | IC50 [1] | other results
Cc1cc(-c2ccc(CO)[nH]c2=O)cc(C(C)(C)C)c1 [I-12] | 892 nM | 
COc1c(C(=O)N2CCCC(CO)C2)cc(-c2ccc[nH]c2=O)cc1C(C)(C)C (centres unmarked) [I-24] | 1530 nM | 
Cc1cc(-c2ccc[nH]c2=O)cc(C2(C)CCCC2)c1 [I-27] |  | IC50 [2]: 5380 nM
Cc1cc(-c2ccc[nH]c2=O)cc(C2(C)CCC2)c1 [I-28] | 1460 nM | 
COCCN(C(=O)c1cc(-c2ccc[nH]c2=O)cc(C(C)(C)C)c1OC)C1CC1 [I-31] | 2290 nM | 
COc1c(C(=O)NCCc2ccccc2)cc(-c2ccc[nH]c2=O)cc1C(C)(C)C [I-34] | 1700 nM | 
COc1c(C(=O)NCC(C)c2ccccc2)cc(-c2ccc[nH]c2=O)cc1C(C)(C)C (centres unmarked) [I-35] | 1230 nM | 
COc1c(C(=O)NCc2ccccc2)cc(-c2ccc[nH]c2=O)cc1C(C)(C)C [I-37] | 1010 nM | 
COc1c(C(=O)NCc2ccncc2)cc(-c2ccc[nH]c2=O)cc1C(C)(C)C [I-38] | 932 nM | 
COc1c(C(=O)NCc2cncn2C)cc(-c2ccc[nH]c2=O)cc1C(C)(C)C [I-39] | 1340 nM | 
COc1c(C(=O)NCc2ccc(N(C)C)cc2)cc(-c2ccc[nH]c2=O)cc1C(C)(C)C [I-40] | 1600 nM | 
COc1c(C(=O)Nc2ccc(N(C)C)cc2)cc(-c2ccc[nH]c2=O)cc1C(C)(C)C [I-41] | 1510 nM | 
COc1c(C(=O)NCCN(C)C)cc(-c2ccc[nH]c2=O)cc1C(C)(C)C [I-43] | 1750 nM | 
COc1c(C(=O)NCCCN2CCCC2=O)cc(-c2ccc[nH]c2=O)cc1C(C)(C)C [I-44] | 1200 nM | 
CC(C)(C)c1cc(-c2ccc[nH]c2=O)cc(NC(=O)c2ccccc2)c1F [I-60] | 1090 nM | 
COc1c(C(=O)NC2CCCN(C)C2)cc(-c2ccc[nH]c2=O)cc1C(C)(C)C (centres unmarked) [I-77] | 1830 nM | 
COc1c(C(=O)Nc2cccc(CO)c2C)cc(-c2ccc[nH]c2=O)cc1C(C)(C)C [I-78] | 1130 nM | 
COc1c(C(=O)Nc2ccccc2C)cc(-c2ccc[nH]c2=O)cc1C(C)(C)C [I-79] | 1170 nM | 
COc1c(C(=O)NC2CCN(C)CC2)cc(-c2ccc[nH]c2=O)cc1C(C)(C)C [I-91] | 1480 nM | 
COc1c(C(=O)NC2CCC(N(C)C)CC2)cc(-c2ccc[nH]c2=O)cc1C(C)(C)C (centres unmarked) [I-92] | 1690 nM | 

SMILES | IC50 [1] | other results
COc1c(C(=O)NC2CCCCC2CO)cc(-c2ccc[nH]c2=O)cc1C(C)(C)C (centres unmarked) [I-93] | 1900 nM | 
COc1c(CCc2ccc(NS(C)(=O)=O)cc2)cc(-c2cc(Cl)c[nH]c2=O)cc1C(C)(C)C [I-95, N-(4-{2-[3-tert-Butyl-5-(5-chloro-2-oxo-1,2-dihydro-pyridin-3-yl)-2-methoxy-phenyl]-ethyl}-phenyl)-methanesulfonamide] | 17 nM | 
COc1c(C(=O)Nc2cccc(CO)c2)cc(-c2ccc[nH]c2=O)cc1C(C)(C)C [I-97] | 384 nM | 
COc1c(N(C)C(=O)c2ccc(NS(C)(=O)=O)cc2)cc(-c2ccc[nH]c2=O)cc1C(C)(C)C [I-104, N-[3-tert-Butyl-2-methoxy-5-(2-oxo-1,2-dihydro-pyridin-3-yl)-phenyl]-4-methanesulfonylamino-N-methyl-benzamide] | 107 nM | 
CCc1ccc(-c2cc(C(C)(C)C)ccc2OC)c(=O)[nH]1 [I-105, 3-(5-tert-Butyl-2-methoxy-phenyl)-6-ethyl-1H-pyridin-2-one] | 6350 nM | 
COc1c(C(=O)Nc2ccc(OCC(N)=O)cc2)cc(-c2ccc[nH]c2=O)cc1C(C)(C)C [I-113, 3-tert-Butyl-N-(4-carbamoylmethoxy-phenyl)-2-methoxy-5-(2-oxo-1,2-dihydro-pyridin-3-yl)-benzamide] | 133 nM | 
COc1cc(C(=O)O)ccc1[N+](=O)[O-] [I-130] |  | IC50 [3]: 3 nM
O=C(O)c1ccc([N+](=O)[O-])c(Cl)c1 [I-131] |  | IC50 [3]: 3 nM
O=C(O)c1ccc([N+](=O)[O-])cn1 [I-136] |  | IC50 [3]: 5 nM
C/C(=C\c1cc(C(C)(C)C)cc(-c2ccc[nH]c2=O)c1O)c1ccc(NS(C)(=O)=O)cc1 [I-143] | 308 nM | 
COc1c(/C=C(/CO)c2ccc(NS(C)(=O)=O)cc2)cc(-c2ccc[nH]c2=O)cc1C(C)(C)C [I-145] | 53 nM | 
CC(C)(C)c1cc(/C=C/c2ccc(NS(C)(=O)=O)c(F)c2)cc(-c2ccc[nH]c2=O)c1 [I-146, N-(4-{(E)-2-[3-tert-Butyl-5-(2-oxo-1,2-dihydro-pyridin-3-yl)-phenyl]-vinyl}-2-fluoro-phenyl)-methanesulfonamide] | 3 nM | 
COc1c(/C=C(\CO)c2ccc(NS(C)(=O)=O)cc2)cc(-c2ccc[nH]c2=O)cc1C(C)(C)C [I-149, N-(4-{(Z)-2-[3-tert-Butyl-2-methoxy-5-(2-oxo-1,2-dihydro-pyridin-3-yl)-phenyl]-1-hydroxymethyl-vinyl}-phenyl)-methanesulfonamide] | 26 nM | 
COc1c(/C=C/c2ccc(NS(=O)(=O)CC(F)(F)F)cc2)cc(-c2cc(F)c[nH]c2=O)cc1C(C)(C)C [I-152] | 16 nM | 
COc1c(/C=C/c2ccc(NS(=O)(=O)CC3CC3)cc2)cc(-c2cc(F)c[nH]c2=O)cc1C(C)(C)C [I-153] | 8 nM | 
COc1c(/C=C/c2ccc(NS(=O)(=O)C(F)(F)F)cc2)cc(-c2cc(F)c[nH]c2=O)cc1C(C)(C)C [I-154] |  | IC50 [4]: 10 nM
COc1c(/C=C/c2ccc(NS(=O)(=O)C3CC3)cc2)cc(-c2cc(F)c[nH]c2=O)cc1C(C)(C)C [I-155, Cyclopropanesulfonic acid (4-{(E)-2-[3-tert-butyl-5-(5-fluoro-2-oxo-1,2-dihydro-pyridin-3-yl)-2-methoxy-phenyl]-vinyl}-phenyl)-amide] | 3 nM | 
COCCCS(=O)(=O)Nc1ccc(/C=C/c2cc(-c3cc(F)c[nH]c3=O)cc(C(C)(C)C)c2OC)cc1 [I-156] | 6 nM | 
COC(=O)c1cc(NS(C)(=O)=O)ccc1/C=C/c1cc(-c2ccc[nH]c2=O)cc(C(C)(C)C)c1 [I-158] | 19 nM | 
CC(C)(C)c1cc(/C=C/c2ccc(NS(C)(=O)=O)cc2C(=O)O)cc(-c2ccc[nH]c2=O)c1 [I-159, 2-{(E)-2-[3-tert-Butyl-5-(2-oxo-1,2-dihydro-pyridin-3-yl)-phenyl]-vinyl}-5-methanesulfonylamino-benzoic acid] | 8 nM | 

SMILES | IC50 [1] | other results
COc1c(/C=C/c2ccc(NS(C)(=O)=O)cc2CNC(C)=O)cc(-c2ccc[nH]c2=O)cc1C(C)(C)C [I-160, N-(2-{(E)-2-[3-tert-Butyl-2-methoxy-5-(2-oxo-1,2-dihydro-pyridin-3-yl)-phenyl]-vinyl}-5-methanesulfonylamino-benzyl)-acetamide] | 4 nM | 
CC(C)(C)c1cc(/C=C/c2ccc(NS(C)(=O)=O)cn2)c(O)c(-c2ccc[nH]c2=O)c1 [I-167, N-(6-{(E)-2-[5-tert-Butyl-2-hydroxy-3-(2-oxo-1,2-dihydro-pyridin-3-yl)-phenyl]-vinyl}-pyridin-3-yl)-methanesulfonamide] | 21 nM | 
COc1c(/C=C/c2ccc(NC(C)=O)cn2)cc(-c2cc(F)c[nH]c2=O)cc1C(C)(C)C [I-169, N-(6-{(E)-2-[3-tert-Butyl-5-(5-fluoro-2-oxo-1,2-dihydro-pyridin-3-yl)-2-methoxy-phenyl]-vinyl}-pyridin-3-yl)-acetamide] | 29 nM | 
COc1c(/C=C/c2ccc(NS(C)(=O)=O)cn2)cc(-c2cc(F)c[nH]c2=O)cc1C(C)(C)C [I-170, N-(6-{(E)-2-[3-tert-Butyl-5-(5-fluoro-2-oxo-1,2-dihydro-pyridin-3-yl)-2-methoxy-phenyl]-vinyl}-pyridin-3-yl)-methanesulfonamide] | 6 nM | 
COc1c(/C=C/c2ccc(N)nc2)cc(-c2ccc[nH]c2=O)cc1C(C)(C)C [I-171] | 4 nM | 
COc1c(/C=C/c2ccc(NS(C)(=O)=O)nc2)cc(-c2ccc[nH]c2=O)cc1C(C)(C)C [I-172] | 3 nM | 
COc1c(/C=C/c2ccc(N)nc2)cc(-c2cc(F)c[nH]c2=O)cc1C(C)(C)C [I-174] |  | IC50 [4]: 12 nM
COc1c(/C=C/c2ccc(NS(C)(=O)=O)nc2)cc(-c2cc(F)c[nH]c2=O)cc1C(C)(C)C [I-175] | 6 nM | 
COc1c(CC(CO)c2ccc(NS(C)(=O)=O)cc2)cc(-c2ccc[nH]c2=O)cc1C(C)(C)C (centres unmarked) [I-176] |  | IC50 [4]: 6 nM
COc1c(CC(C#N)c2ccc(NS(C)(=O)=O)cc2)cc(-c2ccc[nH]c2=O)cc1C(C)(C)C (centres unmarked) [I-177, N-(4-{2-[3-tert-Butyl-2-methoxy-5-(2-oxo-1,2-dihydro-pyridin-3-yl)-phenyl]-1-cyano-ethyl}-phenyl)-methanesulfonamide] | 8 nM | 
COc1c(CC(C(N)=O)c2ccc(NS(C)(=O)=O)cc2)cc(-c2ccc[nH]c2=O)cc1C(C)(C)C (centres unmarked) [I-178] | 15 nM | 
COc1c(CC(C(=O)O)c2ccc(NS(C)(=O)=O)cc2)cc(-c2ccc[nH]c2=O)cc1C(C)(C)C (centres unmarked) [I-179, 3-[3-tert-Butyl-2-methoxy-5-(2-oxo-1,2-dihydro-pyridin-3-yl)-phenyl]-2-(4-methanesulfonylamino-phenyl)-propionic acid] | 8 nM | 
COc1c(/C=C/c2ccc(NS(C)(=O)=O)cc2)cc(-c2ccc[nH]c2=O)cc1C(C)(O)C(F)(F)F (centres unmarked) [I-180] | 5 nM | 
COc1c(/C=C/c2ccc(N)nn2)cc(-c2ccc[nH]c2=O)cc1C(C)(C)C [I-181] | 8 nM | 
COc1c(/C=C/c2ccc(NS(C)(=O)=O)nn2)cc(-c2ccc[nH]c2=O)cc1C(C)(C)C [I-182] |  | IC50 [4]: 9 nM
COc1c(/C=C/c2ccc(N)nn2)cc(-c2cc(F)c[nH]c2=O)cc1C(C)(C)C [I-183] |  | IC50 [4]: 7 nM
COc1c(/C=C/c2ccc(NS(C)(=O)=O)nn2)cc(-c2cc(F)c[nH]c2=O)cc1C(C)(C)C [I-184] |  | IC50 [4]: 4 nM
COc1c(C(=O)Nc2cccc(O)c2C)cc(-c2ccc[nH]c2=O)cc1C(C)(C)C [I-185] | 854 nM | 
COC(=O)c1cc(NS(C)(=O)=O)ccc1/C=C/c1cc(-c2cc(F)c[nH]c2=O)cc(C(C)(C)C)c1OC [I-186] |  | IC50 [2]: 4 nM

Reference: patent US8273773B2 (priority 2008, dated 2012)
